According to PMC10466331, “Fluorescence polarisation activity-based protein profiling for the identification of deoxynojirimycin-type inhibitors selective for lysosomal retaining alpha- and beta-glucosidases” (Chemical Science, 2023):
Where two headings read alike, the source gives them in different places. One block for each compound: values may come before it.

Assays:
[1] = target: T1, recombinant human GAA (rhGAA, Myozyme) (Homo sapiens, UniProt P10253); assay: competitive FluoPol-ABPP assay on rhGAA with TAMRA-ABP II; assay type: biochemical; settings: library screen, 5 μM inhibitor, 25 nM ABP II;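 note: fluorescence polarization read at 540 nm excitation and 590 nm emission, background-corrected, normalized to uninhibited probe labelling as 100% and excess cyclosulfate as 0%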
T1 construct: purchased Genzyme

[2] = target: T2, human recombinant lysosomal α-glucosidase GAA (Myozyme) (Homo sapiens, UniProt P10253); assay: fluorogenic substrate (4MU-α-D-glucopyranoside) assay on rhGAA; assay type: biochemical
T2 construct: purchased Genzyme

[3] = target: T3, ER α-glucosidase GANAB (from Pompe disease Fibroblast lysates) (Homo sapiens, UniProt Q14697); assay: fluorogenic substrate (4MU-α-D-glucopyranoside) assay on GANAB in Pompe fibroblast homogenates; assay type: biochemical;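 note: inhibitor preincubated 30 min at 37 °C with homogenate, then GANAB activity read after 2 h with 3.0 mM fluorogenic substrate in McIlvaine buffer containing 0.1% BSA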
T3 construct: Cellular homogenates of Pompe fibroblasts (1 mg mL^−1) were used as protein source for GANAB; endogenous in cells; host or cells: Pompe disease fibroblasts (homogenate)
T3 sequence (Q14697 29-944): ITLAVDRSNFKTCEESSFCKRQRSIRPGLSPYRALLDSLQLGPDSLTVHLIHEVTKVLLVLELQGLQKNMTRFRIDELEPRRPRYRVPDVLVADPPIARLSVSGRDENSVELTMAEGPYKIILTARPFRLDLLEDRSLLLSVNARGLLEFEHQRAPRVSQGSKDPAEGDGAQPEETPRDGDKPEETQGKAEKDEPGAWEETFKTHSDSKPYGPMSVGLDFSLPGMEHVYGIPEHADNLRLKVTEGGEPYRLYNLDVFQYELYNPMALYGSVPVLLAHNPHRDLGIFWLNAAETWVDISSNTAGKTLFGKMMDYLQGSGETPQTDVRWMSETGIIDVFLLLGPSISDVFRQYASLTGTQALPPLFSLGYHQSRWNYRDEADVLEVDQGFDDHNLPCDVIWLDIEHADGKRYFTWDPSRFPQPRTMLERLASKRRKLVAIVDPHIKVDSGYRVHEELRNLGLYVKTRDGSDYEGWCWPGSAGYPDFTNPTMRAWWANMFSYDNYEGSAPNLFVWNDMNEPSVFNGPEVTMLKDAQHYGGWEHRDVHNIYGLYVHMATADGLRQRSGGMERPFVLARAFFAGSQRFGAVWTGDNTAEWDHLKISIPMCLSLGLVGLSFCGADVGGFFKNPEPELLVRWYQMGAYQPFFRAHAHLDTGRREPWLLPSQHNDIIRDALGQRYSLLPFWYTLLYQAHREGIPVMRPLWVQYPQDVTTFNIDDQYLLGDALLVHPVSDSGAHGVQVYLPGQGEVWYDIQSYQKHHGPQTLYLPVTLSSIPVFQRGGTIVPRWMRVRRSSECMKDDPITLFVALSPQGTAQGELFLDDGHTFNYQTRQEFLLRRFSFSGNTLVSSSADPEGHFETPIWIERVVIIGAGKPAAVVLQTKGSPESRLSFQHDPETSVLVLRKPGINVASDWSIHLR
T3 sequence (P14314 15-528 partner): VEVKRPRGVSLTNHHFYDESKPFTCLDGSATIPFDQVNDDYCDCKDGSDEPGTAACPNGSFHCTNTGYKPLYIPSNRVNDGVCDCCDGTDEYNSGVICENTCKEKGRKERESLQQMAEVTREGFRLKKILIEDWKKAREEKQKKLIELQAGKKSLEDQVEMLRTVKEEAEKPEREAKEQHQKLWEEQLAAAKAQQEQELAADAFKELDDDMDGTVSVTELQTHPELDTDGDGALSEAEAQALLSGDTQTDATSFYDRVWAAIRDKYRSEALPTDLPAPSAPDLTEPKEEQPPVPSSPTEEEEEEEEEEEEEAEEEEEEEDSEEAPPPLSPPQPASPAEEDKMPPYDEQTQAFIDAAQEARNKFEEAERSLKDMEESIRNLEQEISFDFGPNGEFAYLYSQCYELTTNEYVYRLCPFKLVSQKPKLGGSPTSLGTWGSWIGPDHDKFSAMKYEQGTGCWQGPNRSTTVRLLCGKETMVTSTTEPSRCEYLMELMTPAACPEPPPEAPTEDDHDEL

[4] = target: T4, recombinant human GBA1 (rhGBA1, Cerezyme) (Homo sapiens, UniProt P04062, R534H); assay: competitive FluoPol-ABPP assay on rhGBA1 with TAMRA-ABP I; assay type: biochemical; settings: library screen, 5 μM inhibitor, 5 nM ABP I
T4 construct: purchased Genzyme
T4 sequence (P04062 40-536 R534H): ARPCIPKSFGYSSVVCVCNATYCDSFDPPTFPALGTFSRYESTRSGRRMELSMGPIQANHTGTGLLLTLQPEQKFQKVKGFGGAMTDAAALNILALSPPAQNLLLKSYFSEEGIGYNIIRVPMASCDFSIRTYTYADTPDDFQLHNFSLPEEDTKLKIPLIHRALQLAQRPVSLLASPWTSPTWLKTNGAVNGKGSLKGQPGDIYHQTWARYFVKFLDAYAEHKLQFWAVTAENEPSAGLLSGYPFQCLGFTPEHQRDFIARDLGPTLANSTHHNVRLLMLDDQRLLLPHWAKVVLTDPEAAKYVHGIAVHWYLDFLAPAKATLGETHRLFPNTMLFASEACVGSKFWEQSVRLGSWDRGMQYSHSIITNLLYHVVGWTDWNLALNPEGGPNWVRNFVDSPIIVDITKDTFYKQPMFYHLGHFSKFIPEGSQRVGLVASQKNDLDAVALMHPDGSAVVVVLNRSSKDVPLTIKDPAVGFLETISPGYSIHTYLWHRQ

[5] = tested on: rhGBA1 (Cerezyme); settings: read-out: IC50 GBA1; cited from earlier work
[6] = tested on: GBA2 (GBA2-overexpressing HEK293T lysate); settings: cited from earlier work
[7] = tested on: glucosylceramide synthase (GCS) (RAW 264.7 cells); settings: in situ; cited from earlier work
[8] = Table S2, 4-MU alpha glucoside substrate, read-out: IC50 on rhGAA
[9] = Table S2, 4-MU alpha glucoside substrate, read-out: IC50 on GANAB
[10] = 4MU-α-glucoside substrate, pH 7.0, mean ± SD, 3 technical replicates, read-out: IC50 GANAB

GAA FP% (residual FP-signal) [1]: 0.8%
IC50 [2, 8]: 98 nM
IC50 [3, 9]: 1600 nM
SMILES: OC[C@@H]1[C@@H](O)[C@H](O)[C@@H](O)CN1CCCCCOCc1ccc(-c2ccccc2F)cc1 [#ID 330]

GAA FP% (residual FP-signal) [1]: 1.8%
IC50 [2, 8]: 54 nM
IC50 [3, 9]: 520 nM
SMILES: OC[C@@H]1[C@@H](O)[C@H](O)[C@@H](O)CN1CCCCCOCc1cccc(-c2ccccc2)c1 [#ID 341]

GAA FP% (residual FP-signal) [1]: 0.6%
IC50 [2, 8]: 43 nM
IC50 [3, 9]: 250 nM
SMILES: OC[C@@H]1[C@@H](O)[C@H](O)[C@@H](O)CN1CCCCCOCc1ccc(-c2ccccc2)cc1 [#ID 343]

GAA FP% (residual FP-signal) [1]: 1.5%
IC50 [2, 8]: 58 nM
IC50 [3, 9]: 370 nM
SMILES: C[C@@H](OCCCCCN1C[C@H](O)[C@@H](O)[C@H](O)[C@H]1CO)c1ccc(-c2ccccc2)cc1 [#ID 345]

GAA FP% (residual FP-signal) [1]: 0.4%
IC50 [2, 8]: 42 nM
IC50 [3, 9]: 400 nM
SMILES: C[C@H](OCCCCCN1C[C@H](O)[C@@H](O)[C@H](O)[C@H]1CO)c1ccc(-c2ccccc2)cc1 [#ID 347]

GAA FP% (residual FP-signal) [1]: 3.0%
IC50 [2, 8]: 28 nM
IC50 [3, 9]: 4400 nM
SMILES: OC[C@@H]1[C@@H](O)[C@H](O)[C@@H](O)CN1CCCC(F)(F)COCc1ccc(-c2ccccc2)cc1 [#ID 349]

GAA FP% (residual FP-signal) ([1]; listed as 62): 3.8%
IC50 ([2]; 4MU-α-glucoside substrate, pH 4.0, mean ± SD, 3 technical replicates, read-out: IC50 GAA): 1180 ± 310 nM
IC50 [2, 8]: 1200 nM
IC50 [3, 10]: 8290 ± 170 nM
IC50 [3, 9]: 8300 nM
SMILES: OC[C@@H]1[C@@H](O)[C@H](O)[C@@H](O)CN1CCCCCOCc1ccc(-c2ccccc2)cc1 [Compound 6]

The remaining lines, values behind:

SMILES: OC[C@@H]1[C@@H](O)[C@H](O)[C@@H](O)CN1CCCCCOCc1ccc(-c2cccnc2)cc1 [#ID 318]
GAA FP% (residual FP-signal) [1]: 0.6%
IC50 [2, 8]: 85 nM
IC50 [3, 9]: 1700 nM

SMILES: OC[C@@H]1[C@@H](O)[C@H](O)[C@@H](O)CN1CCCCCOCc1ccc(-c2cncnc2)cc1 [#ID 320]
GAA FP% (residual FP-signal) [1]: 1.0%
IC50 [2, 8]: 82 nM
IC50 [3, 9]: 1300 nM

SMILES: OC[C@@H]1[C@@H](O)[C@H](O)[C@@H](O)CN1CCCCCOCc1ccc(-c2ccc(F)nc2)cc1 [#ID 322]
GAA FP% (residual FP-signal) [1]: 0.8%
IC50 [2, 8]: 80 nM
IC50 [3, 9]: 1700 nM

SMILES: OC[C@@H]1[C@@H](O)[C@H](O)[C@@H](O)CN1CCCCCOCc1ccc(-c2ccc3c(c2)OCCO3)cc1 [#ID 324]
GAA FP% (residual FP-signal) [1]: 0.9%
IC50 [2, 8]: 12 nM
IC50 [3, 9]: 570 nM

SMILES: Cc1ccccc1-c1ccc(COCCCCCN2C[C@H](O)[C@@H](O)[C@H](O)[C@H]2CO)cc1 [#ID 326]
GAA FP% (residual FP-signal) [1]: 0.8%
IC50 [2, 8]: 12 nM
IC50 [3, 9]: 690 nM

SMILES: N#Cc1ccccc1-c1ccc(COCCCCCN2C[C@H](O)[C@@H](O)[C@H](O)[C@H]2CO)cc1 [#ID 328]
GAA FP% (residual FP-signal) [1]: 0.7%
IC50 [2, 8]: 21 nM
IC50 [3, 9]: 1700 nM

SMILES: COc1ccccc1-c1ccc(COCCCCCN2C[C@H](O)[C@@H](O)[C@H](O)[C@H]2CO)cc1 [#ID 332]
GAA FP% (residual FP-signal) [1]: 0.8%
IC50 [2, 8]: 130 nM
IC50 [3, 9]: 1300 nM

SMILES: OC[C@@H]1[C@@H](O)[C@H](O)[C@@H](O)CN1CCCCCOCc1ccc(-c2ccnc(F)c2)cc1 [#ID 334]
GAA FP% (residual FP-signal) [1]: 1.5%
IC50 [2, 8]: 160 nM
IC50 [3, 9]: 1600 nM

SMILES: OC[C@@H]1[C@@H](O)[C@H](O)[C@@H](O)CN1CCCCCOCc1ccc(-c2ccccc2)cn1 [#ID 336]
GAA FP% (residual FP-signal) [1]: 0.4%
IC50 [2, 8]: 37 nM
IC50 [3, 9]: 310 nM

SMILES: OC[C@@H]1[C@@H](O)[C@H](O)[C@@H](O)CN1CCCCCOCc1ccccc1-c1ccccc1 [#ID 339]
GAA FP% (residual FP-signal) [1]: 0.9%
IC50 [2, 8]: 100 nM
IC50 [3, 9]: 620 nM

SMILES: OC[C@@H]1[C@@H](O)[C@H](O)[C@@H](O)CN1CCCCCOCc1ccc(-c2ccc(Br)cc2)cc1 [#ID 348]
GAA FP% (residual FP-signal) [1]: 3.1%
IC50 [2, 8]: 23 nM
IC50 [3, 9]: 610 nM

SMILES: O[C@@H]1[C@@H](O)[C@@H](CCCCCCOCC23CC4CC(CC(C4)C2)C3)NC[C@H]1O [Compound 7]
inhibition at 5 µM [4]: > 90%

SMILES: OC[C@H]1N[C@H](CCCCCCOCC23CC4CC(CC(C4)C2)C3)[C@H](O)[C@@H](O)[C@@H]1O [Compound 8]
inhibition at 5 µM [4]: > 90%
GAA FP% (residual FP-signal) [1]: 29%
IC50 [2, 8]: 2460 nM

SMILES: OC[C@H]1N[C@H](CCCCCOCC23CC4CC(CC(C4)C2)C3)[C@H](O)[C@@H](O)[C@@H]1O [Compound 14]
GAA FP% (residual FP-signal) [1]: 34%
IC50 [2, 8]: 4000 nM
IC50 [3, 10]: > 100000 nM
IC50 [5]: 70 nM
IC50 [6]: 300 nM
IC50 [7]: 50000 nM

SMILES: OC[C@@H]1[C@@H](O)[C@H](O)[C@@H](O)CN1CCCCCOCc1cc2ccccc2c2ccccc12 [Compound 15]
GAA FP% (residual FP-signal) [1]: 25%
IC50 [2, 8]: 110 nM
IC50 [3, 10]: 1960 ± 40 nM
IC50 [3, 9]: 2000 nM
IC50 [5]: 10000 nM
IC50 [6]: 100 nM
IC50 [7]: > 20000 nM
